Source: patent publication US20030022253A1, “Method for identifying, isolating and producing neuroactive binding agents and binding agents derived thereby” (Nyxis Neurotherapies, Inc., priority 2001, published 2003)
Where two headings read alike, the source gives them in different places.

Experiments:
[1] = biological target: T1, NMDA receptor-ion channel complex; experiment: [3H]TCP binding assay on washed hippocampal membranes; parameters: species or system rat; settings: antagonist alone, no glutamate or glycine added; read-out: IC50, inhibition of [3H]TCP binding
T1 construct: other: antagonist alone, no glutamate or glycine added; other: combined addition, 50 μM of each
Description: (§1) Tissue Preparation. Crude synaptic membranes were prepared from rat Hippocampi or from rat forebrains (male Sprague-Dawley rats) and washed extensively to remove endogenous amino acids, as previously described by Ransom and Stec ((1988) Brain Res. 444, 25-32). […] Membranes were then pelleted by centrifugation at 48,000 g for 20 min. This step was repeated twice and the homogenate was stored at −70′ in the same buffer. Before each use, homogenates were thawed at room temperature, pelleted, and washed four additional times. […] The final washed membranes were resuspended at concentrations of 2-3 mg/ml in either 5 mM Tris-HCl buffer or 5 mM Tris-acetate buffer.
(§2) TCP binding assay. Measurements of specific [^3H]TCP binding were performed as described previously (Haring R., Kloog Y., Harshak-Felixbrodt N., and Sokolovsky M. (1987) Biochem. Biophys. Res. Commun. 142, 501-510). Final reaction of mixtures consisted of 50-100 μg of membrane protein in 200 μl of 5 mM Tris-HCl buffer and contained either [^3H]TCP, or [^3H]TCP and the appropriate concentration of NMDA-receptor ligands or MAbs. Reactions were initiated by the addition of the membranes to the reaction mixtures. Unless otherwise indicated, binding assays were performed under nonequilibrium conditions at 25° C. for 1 hr. Nonspecific binding was determined in parallel samples containing 100 μM unlabeled PCP. Binding reactions were terminated by filtration on Whatman GF/B glass filters that had been pretreated with 0.1% polyethyleneimine for 1 hr. The dissociation of [^3H]TCP from its membrane-binding site was measured after equilibrating the receptors with 20 nM [^3H]TCP for 120 min. The dissociation reaction was initiated by the addition of 100 μM unlabeled PCP in the presence and absence of NMDA-receptor ligands or MAb. Reactions were terminated immediately (zero time) and after incubation for the additional periods of time indicated.

[2] = biological target: NMDA receptor-ion channel complex; experiment: as above; parameters: species or system rat
Description: as §1, §2

[3] = biological target: T2, NMDA receptor-ion channel complex (Rattus norvegicus, UniProt P35439); experiment: as above
T2 construct: other: in the presence of 25 μM of B6B21; other: agonist alone
Description: as §1, §2

[4] = biological target: T3, glycine-binding site of the NMDA-receptor complex (Rattus norvegicus, UniProt P35439); experiment: [3H]glycine binding assay; settings: Scatchard analysis, no antibody
T3 construct: Crude synaptic membranes were prepared from rat Hippocampi or from rat forebrains (male Sprague-Dawley rats); from tissue; host or cells: rat hippocampal or forebrain crude synaptic membranes (male Sprague-Dawley), Triton X-100 treated
Description: as §1

[5] = system: learning; settings: rats, IV doses up to 2 mg/kg; cited from earlier work
[6] = biological target: T4, NMDA receptor complex (Rattus norvegicus, UniProt P35439); experiment: Modified glycine site-dependent [3H]MK-801 binding assay with 7-chlorokynurenic acid; settings: at 10^−6 M
T4 construct: Crude synaptic membranes were prepared using rat hippocampal tissue (male Sprague-Dawley rats); from tissue; host or cells: rat hippocampal crude synaptic membranes (male Sprague-Dawley)

[7] = system: learning; settings: rats, IV doses up to 2 mg/kg; cited from earlier work; remark: listed apart in the source

T2 sequence (Q00959 23-1464, other chains not shown): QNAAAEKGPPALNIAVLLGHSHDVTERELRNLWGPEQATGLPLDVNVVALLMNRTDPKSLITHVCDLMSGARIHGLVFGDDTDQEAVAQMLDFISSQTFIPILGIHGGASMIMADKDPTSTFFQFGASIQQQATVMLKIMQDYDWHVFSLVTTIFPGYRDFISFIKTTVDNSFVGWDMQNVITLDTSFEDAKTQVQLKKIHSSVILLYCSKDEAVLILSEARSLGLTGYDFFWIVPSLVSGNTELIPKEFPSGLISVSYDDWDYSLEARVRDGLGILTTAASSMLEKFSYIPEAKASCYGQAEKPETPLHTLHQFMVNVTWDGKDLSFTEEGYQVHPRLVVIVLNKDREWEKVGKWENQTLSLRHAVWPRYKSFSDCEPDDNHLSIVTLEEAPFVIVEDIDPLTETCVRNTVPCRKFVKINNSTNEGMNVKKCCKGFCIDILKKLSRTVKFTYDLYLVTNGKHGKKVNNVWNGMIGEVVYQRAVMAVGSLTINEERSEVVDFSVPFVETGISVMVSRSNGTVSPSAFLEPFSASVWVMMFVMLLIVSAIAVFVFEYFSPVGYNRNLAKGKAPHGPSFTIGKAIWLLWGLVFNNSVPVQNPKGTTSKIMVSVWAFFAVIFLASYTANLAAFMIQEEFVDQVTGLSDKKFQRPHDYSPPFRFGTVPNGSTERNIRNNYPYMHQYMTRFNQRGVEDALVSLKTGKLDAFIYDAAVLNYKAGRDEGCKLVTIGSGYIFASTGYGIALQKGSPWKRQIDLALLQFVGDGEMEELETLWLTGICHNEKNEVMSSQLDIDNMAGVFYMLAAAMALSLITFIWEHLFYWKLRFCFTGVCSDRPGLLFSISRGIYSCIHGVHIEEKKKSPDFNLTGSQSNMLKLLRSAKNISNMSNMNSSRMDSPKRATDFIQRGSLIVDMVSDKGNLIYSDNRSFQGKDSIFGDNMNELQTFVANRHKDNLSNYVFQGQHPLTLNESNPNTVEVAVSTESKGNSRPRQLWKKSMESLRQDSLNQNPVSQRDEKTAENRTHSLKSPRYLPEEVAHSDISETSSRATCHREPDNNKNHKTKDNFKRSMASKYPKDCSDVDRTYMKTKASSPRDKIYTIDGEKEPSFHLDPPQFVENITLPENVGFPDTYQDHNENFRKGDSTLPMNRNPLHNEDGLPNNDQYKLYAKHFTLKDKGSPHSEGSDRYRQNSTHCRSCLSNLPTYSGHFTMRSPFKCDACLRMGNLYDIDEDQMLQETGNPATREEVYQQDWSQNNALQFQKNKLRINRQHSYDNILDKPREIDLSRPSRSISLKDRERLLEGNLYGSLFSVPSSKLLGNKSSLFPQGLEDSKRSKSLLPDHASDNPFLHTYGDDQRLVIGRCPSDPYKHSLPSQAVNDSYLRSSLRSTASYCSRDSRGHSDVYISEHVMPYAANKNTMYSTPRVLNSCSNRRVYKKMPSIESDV
T2 sequence (Q00960 27-1482, other chains not shown, further chain): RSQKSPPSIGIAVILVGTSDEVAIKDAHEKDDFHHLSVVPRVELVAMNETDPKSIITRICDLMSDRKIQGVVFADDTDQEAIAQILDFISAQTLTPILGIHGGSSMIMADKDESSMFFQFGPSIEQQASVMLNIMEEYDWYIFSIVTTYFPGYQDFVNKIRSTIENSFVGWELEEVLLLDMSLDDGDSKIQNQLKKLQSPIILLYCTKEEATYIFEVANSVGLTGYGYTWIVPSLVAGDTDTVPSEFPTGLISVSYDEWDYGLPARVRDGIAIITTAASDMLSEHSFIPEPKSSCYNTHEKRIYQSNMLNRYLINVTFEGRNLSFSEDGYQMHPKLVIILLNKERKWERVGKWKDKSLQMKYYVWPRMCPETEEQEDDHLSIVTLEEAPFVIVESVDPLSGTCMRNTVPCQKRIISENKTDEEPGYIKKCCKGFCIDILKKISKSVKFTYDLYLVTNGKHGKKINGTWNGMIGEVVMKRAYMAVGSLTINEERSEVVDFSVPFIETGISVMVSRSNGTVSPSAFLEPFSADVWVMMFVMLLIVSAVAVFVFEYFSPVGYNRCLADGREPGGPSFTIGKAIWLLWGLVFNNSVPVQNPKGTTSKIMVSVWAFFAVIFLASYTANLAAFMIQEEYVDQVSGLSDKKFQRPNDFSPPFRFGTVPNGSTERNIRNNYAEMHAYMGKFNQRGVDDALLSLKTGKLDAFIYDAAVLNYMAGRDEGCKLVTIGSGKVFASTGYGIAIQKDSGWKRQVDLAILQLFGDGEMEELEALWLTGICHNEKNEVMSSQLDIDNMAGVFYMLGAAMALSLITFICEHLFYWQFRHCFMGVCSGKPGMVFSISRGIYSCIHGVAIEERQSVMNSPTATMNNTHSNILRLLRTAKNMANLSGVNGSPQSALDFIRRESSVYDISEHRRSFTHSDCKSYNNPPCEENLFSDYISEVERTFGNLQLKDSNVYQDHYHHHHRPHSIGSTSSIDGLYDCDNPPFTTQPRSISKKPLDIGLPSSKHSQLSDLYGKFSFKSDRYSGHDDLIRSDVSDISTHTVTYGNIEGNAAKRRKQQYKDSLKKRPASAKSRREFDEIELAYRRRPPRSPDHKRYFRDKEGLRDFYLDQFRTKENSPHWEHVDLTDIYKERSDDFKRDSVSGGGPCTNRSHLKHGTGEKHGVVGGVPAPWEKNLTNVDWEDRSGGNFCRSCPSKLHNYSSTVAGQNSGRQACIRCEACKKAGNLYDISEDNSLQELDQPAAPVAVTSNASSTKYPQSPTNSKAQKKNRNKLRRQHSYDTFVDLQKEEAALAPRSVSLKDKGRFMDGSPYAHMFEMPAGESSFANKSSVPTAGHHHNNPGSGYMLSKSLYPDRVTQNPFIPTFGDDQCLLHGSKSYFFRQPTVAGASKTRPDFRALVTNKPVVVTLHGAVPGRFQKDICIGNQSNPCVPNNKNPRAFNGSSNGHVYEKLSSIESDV

O=C(O)c1cc(O)c2ccc(Cl)cc2n1 [7-Cl KYNA, 7-chlorokynurenic acid]
IC50 [1]: 6 µM | IC50 ([2]; in the presence of B6B21 (40 μg/ml), read-out: IC50, inhibition of [3H]TCP binding): 60 µM

N[C@H](CCCP(=O)(O)O)C(=O)O [D-AP5, D-(−)-2-amino-5-phosphonovaleric acid]
IC50 [1]: 1.4 µM | IC50 ([3]; read-out: IC50, inhibition of [3H]TCP binding, in the presence of 50 μM glutamate): > 100 µM

N[C@@H](CCC(=O)O)C(=O)O [glutamate]
concentration giving maximal stimulation of specific [3H]TCP binding [3]: > 10 µM | specific [3H]TCP binding ([3]; maximally stimulating concentration, non-equilibrium 1 h, 25° C., control 63): 132 fmol/mg of protein

NCC(=O)O [glycine]
ability to abolish the inhibitory effect of D-AP5 on [3H]TCP binding ([2]; 50 μM glycine or 40 μg/ml B6B21): Neither glycine nor B6B21 could abolish | specific [3H]TCP binding ([2]; added to maximally stimulating glutamate): 310 fmol/mg of protein | potentiation of the glutamate effect on [3H]TCP binding ([2]; co-addition at concentrations giving maximal effects): potentiated the glutamate effect additively | specific [3H]TCP binding ([2]; in the absence of added glutamate, glycine 50 μM, B6B21 25 μM): 155 fmol/mg of protein | Bmax of [3H]glycine binding [4]: 12.9 pmol/mg of protein

threonine-proline-proline-threonine [NT-13]
learning in the Morris Water Maze [5]: statistically significant increase in learning | [3H]MK-801 binding, % of control [6]: 130% | learning in the trace eyeblink paradigm [7]: statistically significant increase in learning
